# According to patent US5955520A, “Photochromic indeno-fused naphthopyrans” (PPG Industries, Inc., priority 1996, dated 1999):
# Key:
# [1] = photochromic response rates on an optical bench (test squares); type: physicochemical; conditions: for ΔOD @ Saturation: UV exposure continued for 20 minutes; for ΔOD @ Saturation / Sensitivity ΔOD/min: polymer test square, 75° F.; for Sensitivity ΔOD/min: first five (5) seconds of UV exposure, expressed per minute, 1.5 times 10^-3 molal; for Bleach Rate T 1/2: time for absorbance to reach one half the highest absorbance after removal of activating light, room temperature (75° F., 23.9° C.)
# Method: (§1) Testing was done with the Example 1 and Comparative Example 1 photochromic naphthopyrans incorporated into polymeric samples by the following method. The quantity of naphthopyran calculated to yield a 1.5 times 10^-3 molal solution was added to a flask containing 50 grams of a monomer blend of 4 parts ethoxylated bisphenol A dimethacrylate (BPA 2EO DMA), 1 part poly(ethylene glycol) 600 dimethacrylate, and 0.033 weight percent 2,2'-azobis(2-methyl proprionitrile) (AIBN). The naphthopyran was dissolved into the monomer blend by stirring and gentle heating, if necessary. After a clear solution was obtained, it was poured into a flat sheet mold having the interior dimensions of 2.2 mm×6 inches (15.24 cm)×6 inches (15.24 cm). The mold was sealed and placed in a horizontal air flow, programmable oven set to increase the temperature from 40° C. to 95° C. over a 5 hour interval, hold the temperature at 95° C. for 3 hours and then lower it to 60° C., for at least 2 hours before the end of the curing cycle. After the mold was opened, the polymer sheet was cut using a diamond blade saw into 2 inch (5.1 centimeters) test squares.
# The photochromic test squares of Part A were tested for photochromic response rates on an optical bench. Prior to testing on the optical bench, the photochromic test squares were exposed to 365 nanometer ultraviolet light for about 15 minutes to activate the photochromic compounds and then placed into a 76° C. oven for about 15 minutes to bleach the photochromic compounds. The test squares were then cooled to room temperature, exposed to fluorescent room lighting for at least 2 hours and then kept covered for at least 2 hours prior to testing on an optical bench maintained at 75° F. (23.90° C.).
# The optical bench comprises a 150 watt Xenon arc lamp, a tungsten lamp, power supplies for both lamps, condensing lenses as needed to maintain collimated light beams from both lamps, a remote controlled shutter, a copper sulfate bath acting as a heat sink for the arc lamp, a Schott WG-320 nm cut-off filter which removes short wavelength radiation, neutral density filter(s), a sample holder in which the sample to be tested is inserted, a photopic filter, light detector, and radiometer assembly, a strip chart recorder, and a means for maintaining the alignment of the aforestated components during testing.
# Change in optical density (Δ OD) of a sample was determined by inserting a photochromic test sample in the bleached state into the sample holder, adjusting the transmittance scale to 100%, opening the shutter from the Xenon lamp to provide ultraviolet radiation to change the sample from the bleached state to an activated (darkened) state, measuring the transmittance through the sample. The transmittance was measured by directing a beam of light from the tungsten lamp at a small angle normal to the surface of the sample, through the sample, and to a photopic filter, light detector and radiometer assembly. The photopic filter passes wavelengths such that the detector mimics the response of the human eye and produces output signals that are processed by the radiometer. The change in optical density was calculated according to the formula Δ OD=log(100/%Ta) where %Ta is the percent transmittance in the activated state and the logarithm is to the base 10.
# The Δ OD/Min, which represents the sensitivity of the photochromic compound's response to UV light, was measured over the first five (5) seconds of UV exposure, then expressed on a per minute basis. The saturation optical density (OD) was taken under identical conditions as the Δ OD/Min, except UV exposure was continued for 20 minutes. The lambda max (Vis) is the wavelength in the visible spectrum at which the maximum absorption of the activated (colored) form of the photochromic compound in the test square occurs. […]
# [2] = UV/Visible spectrophotometer test of photochromic test squares (lambda max, molal absorptivity); type: physicochemical; conditions: for λ max Vis (major) / λ max Vis (minor): activated (colored) form; for λ max Vis (major): major peak; for λ max Vis (major) / λ max Vis (minor) / Molal Absorpt. (ε) / λ max UV: test square; for λ max Vis (minor): minor peak; for Molal Absorpt. (ε): at λ max in the UV, ε=A/bm; for λ max UV: ultraviolet wavelength closest to the visible spectrum
# Method: as §1
# The photochromic test square polymerizates of Example 1 and Comparative Example 1 prepared in Part A were tested in a UV/Visible spectrophotometer to determine the lambda (λ) max (Vis) and the lambda max (UV) wavelengths. The lambda max (Vis) is the wavelength of the visible spectrum at which the maximum absorption of the activated (colored) form of the photochromic compound in a test square occurs. The lambda max (UV) is the wavelength of the ultraviolet range closest to the visible spectrum at which the absorption of the photochromic compound occurs.
# The molal absorptivity or molal extinction coefficient (ε) reported in Table 2 is equal to the absorbance of the photochromic compound in a test square at the λ max in the UV (A) divided by the thickness of the test square in centimeters (b) multiplied by the concentration of the photochromic compound in the test square in moles per kilogram (m) according to the formula: ε=A/bm
# [3] = in comparison to Comparative Example (CE) 1
SMILES,ΔOD @ Saturation [1],Sensitivity ΔOD/min [1],Bleach Rate T 1/2 [1] [min],λ max Vis (major) [2] [nm],λ max Vis (minor) [2] [nm],Molal Absorpt. (ε) [2],λ max UV [2] [nm],"bleach rate, i.e., fade rate (in words) [1]","sensitivity, i.e., coloration rate (in words) [1, 3]","Δ OD at saturation, i.e., activated intensity (in words) [1, 3]",molal absorptivity (ε) in the UV spectrum (in words) ([2]; in comparison to CE 1),"λ max UV and λ max Vis of the major peak (in words) ([2]; in comparison to CE 1, bathochromic shift)"
"COC(=O)c1c2c(c3ccccc3c1-c1ccccc1)OC(c1ccccc1)(c1ccccc1)C=C2 [CE 1, 2,2-diphenyl-5-methoxycarbonyl-6-phenyl-[2H]-naphtho[1,2-b]pyran, reference compound]",0.68,0.19 ΔOD/min,3.83,482,407,5709,346,,,,,
"CCOC(=O)CC1(O)c2ccccc2-c2c1c1c(c3ccccc23)OC(c2ccccc2)(c2ccccc2)C=C1 (stereo not shown) [Example 1, 3,3-diphenyl-13-hydroxy-13-(2-oxo-2-ethoxyethyl)-1H-indeno[2,1-f]naphtho[1,2-b] pyran]",1.0,0.34 ΔOD/min,5.63,536,425,"12,218",360,acceptable bleach rate,greater sensitivity,higher Δ OD at saturation,higher molal absorptivity,higher λ max UV and λ max Vis of the major peak
